System: AML graft (human CD45+CD33+ cells)
Test: AML xenograft efficacy, 2.5 mg/kg IP twice daily
Assay type: in vivo, NOD/SCID mice
Settings: for In vivo Efficacy (% reduction) BM / In vivo Efficacy (% reduction) RF: AML cells vs vehicle; for Response: class by % reduction of AML cells in RF or BM
Text: Preparation of Test Article for Dosing: For in vivo Compound D dosing, Compound D was formulated immediately prior to each dose following the protocol below.
Formulation: 5% NMP/45% polyethylene glycol (PEG) 400/50% Saline; NMP—Catalogue no. 69118 (new no. M79603-1L), Fluka; PEG400—Catalogue no. 81172-1L, Fluka; Saline—0.9% sodium chloride.
Preparation: Weigh the desired amount of compound in glass vial. Add NMP and vortex. Make sure that entire compound is wet. Add PEG400 and vortex until clear solution without particulates. Add saline slowly and mix thoroughly for about a minute with hand held homogenizer with disposable tip.
Compound Administration: Compound D is dosed via the intraperitoneal route. Vehicle and Compound D are dosed in a volume of 2.5 mL/kg for twice daily (BID) dosing (if testing once daily [QD] dosing, use a dose volume of 5 mL/kg). Recommend a twice daily protocol with a 3-hour separation between the doses.
Intrafemoral Transplantation: One day prior to transplantation, NOD/SCID mice were preconditioned by sublethally irradiating (275 cGy) followed by injection with anti-CD122 antibody (200 μg/mouse) to deplete residual host natural killer (NK) cells. On the day of transplantation, viably frozen AML bulk cells (see Section 6.2.1.2) were thawed, counted, and transplanted intrafemorally into the preconditioned mice at a dose of 5×10^6 cells/mouse in a total volume of 30 μL phosphate buffered saline.
Treatment and Assay Procedure: At Day 21 post AML transplantation, mice were randomly grouped and dosed with either Compound D at 2.5 mg/kg or vehicle (5% N-methyl-2-pyrrolidone [NMP]/45% polyethylene glycol [PEG] 400/50% saline), intraperitoneally twice daily in a dose volume of 50 μL for 4 weeks. All animals were euthanized at scheduled termination (1 day after the last treatment) and bone marrow was collected from the right femur (injected bone marrow) and the left femur and left and right tibia (non-injected bone marrow). Cells isolated from injected or non-injected bone marrow were analyzed by flow cytometry to assess AML engraftment, and were viably frozen for future secondary engraftment analysis.
Cells harvested from injected and non-injected bone marrow were stained with mouse anti human antibodies as indicated in Section 6.2.1.3. After staining, washed cells were run on an LSRII flow cytometer (BD, USA) with 10,000 to 20,000 events collected for each sample. Collected data were analyzed by FlowJo software (TreeStar, USA) to assess AML engraftment levels in different tissues as determined by the percentage of human CD45+CD33+ cells.
Immune-deficient NOD/SCID mice were sublethally irradiated (225cGy) and treated with anti-CD122 antibody to eradicate residual mouse NK cells the day before AML implantation. Primary AML cells from each patient were intrafemorally injected into the mouse right femur at the cell dose 5×10^6 per mouse, with 10 mice transplanted per sample. Compound D and vehicle treatment was initiated at day 21 post transplantation. Compound D was administered at 2.5 mg/kg, intraperitoneally (IP) twice a day at 3 hours apart for 4 weeks. Before each treatment, Compound D was freshly dissolved into the solution. Vehicle was the same solution without Compound D compound and given to the control-treated mice at same volume (50 μL/mouse) with the same therapeutic schedule as Compound D treatment. For each patient sample, each treated group had 5 mice.
After treatment finished, cells were harvested from both injected right femur (RF) and non-injected bone marrow (BM, including left femur, 2 tibias), and stained with human antibodies to assess the engraftment levels of AML. Antibodies used for staining included: Mouse anti-human CD45-APC, CD15-FITC, CD34-APC7, CD38-PC7 (BD Biosciences, USA), CD14-PE, CD33-PC5 (Beckman Coulter, USA), CD19-V450, CD19-AF700, CD11b-APC7, CD34-BV421 (BD Biosciences, USA), and propidium iodide (PI; Invitrogen, USA).

[1] = three samples with high LSC17 score

O=C1CCC(N2Cc3cc(CNC(=O)C(F)(F)c4ccc(Cl)cc4)ccc3C2=O)C(=O)N1 (centres unmarked) [Compound D, 2-(4-chlorophenyl)-N-((2-(2,6-dioxopiperidin-3-yl)-1-oxoisoindolin-5-yl)methyl)-2,2-difluoroacetamide]
response of samples with low LSC17 scores (7 of the low LSC17 samples, more than 50% reduction): responded very well
human CD45+ leukemia graft in RF and BM (AML 100348 (low LSC17)): significant response
paralyzation or death (AML Patient 90668, 5 million cells per mouse): did not rescue these mice from paralyzation or death
number of high LSC17 samples with more than 80% leukemia reduction, BM (BM): 17
number of samples with 50 to 75% reduction (group 2), BM (BM): 6
number of samples with >80% reduction (group 1), BM (BM): 14
In vivo Efficacy (% reduction) BM (Patient 598): 95%
In vivo Efficacy (% reduction) RF (Patient 598): 46%
Response (Patient 598): R (R = >60%)
In vivo Efficacy (% reduction) BM (Patient 90191): −250%
In vivo Efficacy (% reduction) RF (Patient 90191): −21%
Response (Patient 90191): NR (NR = <30%)
In vivo Efficacy (% reduction) BM (Patient 100348): 90%
In vivo Efficacy (% reduction) RF (Patient 100348): 86%
Response (Patient 100348): R (R = >60%)
In vivo Efficacy (% reduction) BM (Patient 110484): 96%
In vivo Efficacy (% reduction) RF (Patient 110484): 73%
Response (Patient 110484): R (R = >60%)
In vivo Efficacy (% reduction) BM (Patient 110500): 67%
In vivo Efficacy (% reduction) RF (Patient 110500): 72%
Response (Patient 110500): R (R = >60%)
In Vivo Efficacy (Primary Mice) % AML cell reduction relative to Veh, BM (Patient 110625): 99.9%
In Vivo Efficacy (Primary Mice) % AML cell reduction relative to Veh, RE (Patient 110625): 99.9%
In vivo Efficacy (% reduction) BM (Patient 120791): 98%
In vivo Efficacy (% reduction) RF (Patient 120791): 69%
Response (Patient 120791): R (R = >60%)
In vivo Efficacy (% reduction) BM (Patient 120846): 26%
In vivo Efficacy (% reduction) RF (Patient 120846): 9%
Response (Patient 120846): NR (NR = <30%)
In vivo Efficacy (% reduction) BM (Patient 120858): 2%
In vivo Efficacy (% reduction) RF (Patient 120858): 0%
Response (Patient 120858): NR (NR = <30%)
percent and number of CD34+ primitive cells (Patient 120860): not reduced
numbers of AML cells, injected femur (Patient 120860 (low LSC17)): did not reduce the numbers of AML cells
number of AML cells, non-injected BM (Patient 120860 (low LSC17), vs vehicle): significantly reduced
In vivo Efficacy (% reduction) BM (Patient 120860): 20%
In vivo Efficacy (% reduction) RF (Patient 120860): 1%
Response (Patient 120860): NR (NR = <30%)
In vivo Efficacy (% reduction) BM (Patient 120899): 67%
In vivo Efficacy (% reduction) RF (Patient 120899): 13%
Response (Patient 120899): R (R = >60%)
In vivo Efficacy (% reduction) BM (Patient 121020): 52%
In vivo Efficacy (% reduction) RF (Patient 121020): 42%
Response (Patient 121020): PR (PR = 30%-60%)
In Vivo Efficacy (Primary Mice) % AML cell reduction relative to Veh, BM (Patient 130311): 99.6%
In Vivo Efficacy (Primary Mice) % AML cell reduction relative to Veh, RE (Patient 130311): 99.8%
In vivo Efficacy (% reduction) BM (Patient 130578): 73%
In vivo Efficacy (% reduction) RF (Patient 130578): 61%
Response (Patient 130578): R (R = >60%)
In vivo Efficacy (% reduction) BM (Patient 130695): 86%
In vivo Efficacy (% reduction) RF (Patient 130695): 52%
Response (Patient 130695): R (R = >60%)
In vivo Efficacy (% reduction) BM (Patient 130712): 56%
In vivo Efficacy (% reduction) RF (Patient 130712): 17%
Response (Patient 130712): PR (PR = 30%-60%)
In Vivo Efficacy (Primary Mice) % AML cell reduction relative to Veh, BM (Patient 130826): 98.1%
In Vivo Efficacy (Primary Mice) % AML cell reduction relative to Veh, RE (Patient 130826): 95.0%
In vivo Efficacy (% reduction) BM (Patient 130926): 85%
In vivo Efficacy (% reduction) RF (Patient 130926): 70%
Response (Patient 130926): R (R = >60%)
In vivo Efficacy (% reduction) BM (Patient 140171): 28%
In vivo Efficacy (% reduction) RF (Patient 140171): 4%
Response (Patient 140171): NR (NR = <30%)
In Vivo Efficacy (Primary Mice) % AML cell reduction relative to Veh, BM (Patient 150238): 98.7%
In Vivo Efficacy (Primary Mice) % AML cell reduction relative to Veh, RE (Patient 150238): 95.2%
number of high LSC17 samples with more than 80% leukemia reduction, RF (RF): 13
number of samples with 50 to 75% reduction (group 2), RF (RF): 10
number of samples with >80% reduction (group 1), RF (RF): Seventeen
number of samples with less than 25% reduction (group 3), RF (RF): 9
response, secondary and relapsed vs de novo AML (RF and BM): responses similar to the cells from de novo AML patients
samples considered responders or partial-responders (RF and BM, all samples): 29 out of 35 samples
AML samples with significant effect (Section 6.2.6, 4 weeks): significant effects on 4 out of 5 AML samples
engrafted samples with significant and dramatic responses (Section 6.3, 31 patient samples tested): 24 out of 28
responder samples (among 7 AML samples incl. 2 pilot samples): 5 samples were responders
samples that did not respond at all, injected RF (group 3): 4 out of 9
samples with no AML reduction, BM (group 3): 3 out of 6
response, Flt3-ITD vs wild-type Flt3 in cytogenetically normal AML (mouse, in vivo): slightly less response to Compound D in injected RF but similar response in BM
response, abnormal vs normal karyotypes (mouse, in vivo): better response
AML cells in RF and BM [1]: completely eradicated to undetectable levels
absolute numbers of primitive CD34+ cells [1]: very low and undetectable levels
